Experimental findings from PMC9377007, “An Unexpected Deuterium-Induced Metabolic Switch in Doxophylline” (ACS Medicinal Chemistry Letters, 2022) are described below.

Each structure is given as a SMILES string.

Data set [1] is described as follows: Comparative pharmacokinetic study, single-dose administration in mice. The settings on record: for AUC(0-t) / Cmax at 24 h / clearance at 24 h / half-life at 24 h / CL/F at 24 h: male, CD1, mouse, plasma, single dose; for decrease of the area under the curve (AUC) versus doxophylline: oral administration. The format is in vivo. The procedure:
(§1) A comparative pharmacokinetic study was then performed by evaluating the plasma concentration profiles of doxophylline and its deuterated analogues after intravenous and oral single-dose administration in mice and minipigs. […] Since the deuterium kinetic isotope effect is often affected by interspecies variability,[28] a PK study was also performed in minipigs. […] A total of 96 CD1 male mice, approximately 6 weeks old and with a body weight of approximately 30 g, were purchased from Envigo RMS srl, (San Pietro al Natisone, UD, Italy). Four males Göttingen minipigs approximately 4-5 months old and weighing 9-11 Kg were purchased from Ellegaard Göttingen Minipigs (Dalmose, Denmark). Protocol for drug administration and blood sampling. Mice. Blood samples were collected under light isoflurane anaesthesia from the sublingual vein at the following time points (n=3): pre-dose and 5, 15, 30 minutes, 1, 2, 4, 8 and 24 hours after i.v. dosing (20 mg/Kg, dose volume 5 mL/Kg) and pre-dose and 15, 30 minutes, 1, 2, 4, 8 and 24 hours after oral gavage dosing (80 mg/Kg, dose volume 5 mL/Kg). Each animal was sampled on each day at a maximum of two alternating time points. Samples were transferred into tubes containing K3EDTA as anticoagulant, centrifuged, and stored at -80 °C. Minipig. Blood samples were collected from the jugular vein at the following time points (n=4): pre-dose and 5, 15, 30 minutes, 1, 2, 4, 8 and 24 hours after i.v. dosing (5 mg/Kg, dose volume 1 mL/Kg) and pre-dose and 15, 30 minutes, 1, 2, 4, 8 and 24 hours after oral gavage dosing (20 mg/Kg, dose volume 4 mL/Kg). Samples were transferred into tubes containing K3EDTA as anticoagulant, centrifuged, and stored at -80 °C. Sample preparation for HPLC-MS analysis. A volume of 50 µL of caffeine solution (1 mg/L in water-methanol 1:1) were added to plasma sample aliquots (50 µL); after the addition of the precipitant solution (100 µL of 10% ice-cold trichloroacetic acid in water), samples were centrifuged at 13,000 rpm for ten minutes and the supernatant injected onto the HPLC system (see supporting information for chromatographic conditions). If the levels of analytes were over range, plasma samples were preventively diluted with blank plasma. Data analysis. Quantification of doxophylline and its deuterated analogues d4 and d7 as well as their main metabolites, 7- theophylline acetic acid (T-COOH), 7-hydroxyethyl theophylline (Eto) and theophylline, was performed by using the calibration curves obtained with the corresponding working standards of the analytes and using caffeine as internal standard. The pharmacokinetic parameters for doxophylline and its deuterated analogues were calculated by plotting the plasma concentration curves versus time obtained from the average values of three animals, using PK Solver 2.0.1 S7

Data set [2] in a line: Comparative pharmacokinetic study, single-dose administration in minipigs. The format is in vivo. The settings on record: male, Göttingen, minipig, plasma. On the procedure: as §1

As to `[2H]C1([2H])OC(Cn2cnc3c2c(=O)n(C)c(=O)n3C)OC1([2H])[2H]` [d4-doxophylline], in data set [1] (intravenous, 20 mg/kg), the AUC(0-t) worked out at 5410 ng·h/mL, the Cmax at 24 h was 12300 ng/mL, the clearance at 24 h was 61.7 mL/min/kg and the half-life at 24 h is 90 min. In data set [1] (oral, 80 mg/kg), this compound had an AUC(0-t) of 31400 ng·h/mL, a CL/F at 24 h of 41.7 mL/min/kg, a Cmax at 24 h of 16800 ng/mL and a half-life at 24 h of 102 min. Moreover, the “decrease of the area under the curve (AUC) versus doxophylline” value in data set [1] amounted to 44%. In data set [2] (intravenous, 5 mg/kg), this compound had an AUC(0-t) of 49.2 µg·h/mL, a Cmax of 7420 ng/mL, a clearance of 1.67 mL/min/kg and a half-life of 372 min. In data set [2] (oral, 20 mg/kg), this compound showed an AUC(0-t) of 236 µg·h/mL, a CL/F of 1.17 mL/min/kg, a Cmax of 15800 ng/mL and a half-life of 648 min.
With `Cn1c(=O)c2c(ncn2CC2OCCO2)n(C)c1=O` [doxophylline], in data set [1] (intravenous, 20 mg/kg), the AUC(0-t) turned out to be 6730 ng·h/mL, the Cmax at 24 h was 15500 ng/mL, the clearance at 24 h was 48.3 mL/min/kg and the half-life at 24 h was 66 min. In data set [1] (oral, 80 mg/kg), the AUC(0-t) came out at 55900 ng·h/mL, the CL/F at 24 h was 23.3 mL/min/kg, the Cmax at 24 h worked out at 18700 ng/mL and the half-life at 24 h is 96 min. For the same compound, in data set [2] (intravenous, 5 mg/kg), the AUC(0-t) came to 47.7 µg·h/mL, the concentration peaked (Cmax) at 7500 ng/mL, the clearance was 1.67 mL/min/kg and the half-life was 372 min. In data set [2] (oral, 20 mg/kg), this compound had an AUC(0-t) of 217 µg·h/mL, a CL/F of 1.17 mL/min/kg, a Cmax of 14000 ng/mL and a half-life of 660 min.
In data set [1] (intravenous, 20 mg/kg), `[2H]C1([2H])OC([2H])(C([2H])([2H])n2cnc3c2c(=O)n(C)c(=O)n3C)OC1([2H])[2H]` [d7-doxophylline] had an AUC(0-t) of 4920 ng·h/mL, a Cmax at 24 h of 10700 ng/mL, a clearance at 24 h of 68.3 mL/min/kg and a half-life at 24 h of 60 min. In data set [1] (oral, 80 mg/kg), this compound showed an AUC(0-t) of 33600 ng·h/mL, a CL/F at 24 h of 40 mL/min/kg, a Cmax at 24 h of 19200 ng/mL and a half-life at 24 h of 126 min. Further, the “decrease of the area under the curve (AUC) versus doxophylline” value in data set [1] is recorded as 40%. Moreover, in data set [2] (intravenous, 5 mg/kg), the AUC(0-t) amounted to 47 µg·h/mL, the peak level (Cmax) was 8260 ng/mL, the clearance is 1.67 mL/min/kg and the half-life was 390 min. In data set [2] (oral, 20 mg/kg), this compound had an AUC(0-t) of 222 µg·h/mL, a CL/F of 1.17 mL/min/kg, a Cmax of 13000 ng/mL and a half-life of 756 min.

Usually AUC(0-t) stands for the area under the concentration-time curve up to a stated or last time point. Low readings indicate less exposure, high ones more exposure. In general, Cmax refers to the maximum level reached in the sampled fluid or tissue. As a reminder, the clearance is the volume of plasma or blood freed of the substance per unit of time. Usually half-life stands for how long it takes for the measured level to halve. By CL/F is commonly meant clearance divided by bioavailability, as obtained after extravascular dosing.
